Nine compounds from PMC9019904, “AD Informer Set: Chemical tools to facilitate Alzheimer's disease drug discovery” (Alzheimer's & Dementia : Translational Research & Clinical …, 2022) can be followed below.

Data set [1] is described as follows: Kinetic solubility in aqueous buffer pH 7.4 by total chemiluminescent nitrogen determination (Analiza). Conditions: aqueous buffer, pH 7.4, aqueous buffer, kinetic from dmso stock.
For data set [2], the system named is BV2 (mouse microglia) cell line. In words: pHrodo-myelin phagocytosis/cell viability high content imaging assay: phagocytosis signal. It counts as cell-based. Conditions: BV2; compound 10 uM; pHrodo-myelin. A digest of the protocol:
(§1)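 Imaging at high content captured pHrodo-myelin uptake about 22 hours after its addition, alongside a viability read-out from the same cells. Three measurements were derived, with intensity increase marking early apoptosis and decrease marking later apoptosis.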

In data set [3] the test system is HMC3 (human microglia) cell line. Described as above. In kind it is cell-based. As to conditions: HMC3; compound 10 uM; pHrodo-myelin. Put shortly:
as §1

In data set [4] the test system is BV2 (mouse microglia) cell line. Put plainly: pHrodo-myelin phagocytosis/cell viability high content imaging assay: viability (cell count, nuclear area, nuclear intensity). As to conditions: BV2; compound 10 uM; 48 hours treatment. Put shortly:
(§2)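 Viability was read as total cell count per well by high-content imaging, with mean average nuclear intensity per cell profiling apoptosis (rise early, fall late). Compounds were given at 10 μM for 48 h, pHrodo-myelin being added for the final 20 h. Values are means of two points as % untreated control.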

Data set [5] concerns HMC3 (human microglia) cell line. The description is as above. As to conditions: HMC3; compound 10 uM; 48 hours treatment. A digest of the protocol: as §2

Values after ≈ are worked out from the molar mass of the structure shown.

As a reminder, the solubility (kinetic) is solubility judged after dilution from a stock solution rather than from solid. `CN(C)CC[C@H](CSc1ccccc1)Nc1ccc(S(=O)(=O)NC(=O)c2ccc(N3CCN(Cc4ccccc4-c4ccc(Cl)cc4)CC3)cc2)cc1[N+](=O)[O-]` [ABT-737] came in with a kinetic solubility in data set [1] of 0.9 µM (≈ 0.732 µg/mL).
In the case of `O=C(NC1CC1)C(=O)C(Cc1ccccc1)NC(=O)[C@H]1CCC(=O)N1Cc1ccccc1` (stereo partly drawn) [ABT-957 (Alicapistat)], in data set [1], the solubility (kinetic) worked out at 176 µM (≈ 76.5 µg/mL).
The same measure, in the same setting: the same measure for `Cc1cc(NC(=O)Nc2ccccc2)n(-c2ccccc2)n1` [CHEMBL86962 (VU0032230)]: 191 µM (≈ 55.9 µg/mL).
For `Cc1cc(C)nc(NS(=O)(=O)c2ccc(NC(=O)NC(=O)c3ccc(Cl)cc3Cl)cc2)n1` [UNC10303168A], the “4. Phagocytosis (% control)” value was 118.2 % control in data set [2] and 88.1 % control in data set [3]. Further, the “1. Cell count (% control)” value in data set [4] is on record as 124.0 % control; in data set [5] it was 129.3 % control. The figures for the “2. Nuclear Area (% Control)” value in data set [4] and in data set [5] were 99.5 % Control and 101.5 % Control, respectively. Besides, the “3. Nuclear DNA Intensity (% control)” value in data set [4] is listed as 104.3 % control; in data set [5], 94.7 % control.
Turning to `NC(=O)[C@@H]1CC[C@H](c2ccc(OCc3ccccc3F)cc2)N1` [UNC10303186A], the “4. Phagocytosis (% control)” value in data set [2] was 194.5 % control. For the same compound, the “4. Phagocytosis (% control)” value in data set [3] was found to be 105.3 % control. In data set [4], the “1. Cell count (% control)” value was 138.2 % control, the “2. Nuclear Area (% Control)” value amounted to 103.3 % Control and the “3. Nuclear DNA Intensity (% control)” value turned out to be 100.1 % control. In addition, in data set [5], the “1. Cell count (% control)” value is reported as 128.0 % control, the “2. Nuclear Area (% Control)” value turned out to be 102.6 % Control and the “3. Nuclear DNA Intensity (% control)” value was 95.0 % control.
For `CC(=O)O[C@@H]1[C@@H](OC(C)=O)[C@@H](O)[C@H](Oc2c(-c3ccc(O)cc3)oc3cc(O)cc(O)c3c2=O)O[C@H]1C` [UNC10303187A], the “4. Phagocytosis (% control)” value in data set [2] came to 142.1 % control. The “4. Phagocytosis (% control)” value in data set [3] worked out at 67.9 % control. In addition, in data set [4], the “1. Cell count (% control)” value is given as 146.1 % control, the “2. Nuclear Area (% Control)” value was determined as 103.4 % Control and the “3. Nuclear DNA Intensity (% control)” value came out at 101.7 % control. In data set [5], the “1. Cell count (% control)” value stood at 122.3 % control, the “2. Nuclear Area (% Control)” value is recorded as 105.1 % Control and the “3. Nuclear DNA Intensity (% control)” value is on record as 90.5 % control.
For `CC(=O)c1nc([C@@H](O)[C@H](O)[C@H](O)CO)c[nH]1` [UNC10303188A], the “4. Phagocytosis (% control)” value in data set [2] turned out to be 181.8 % control. In addition, the “4. Phagocytosis (% control)” value in data set [3] is listed as 91.3 % control. In data set [4], the “1. Cell count (% control)” value came out at 136.1 % control, the “2. Nuclear Area (% Control)” value came out at 102.5 % Control and the “3. Nuclear DNA Intensity (% control)” value was found to be 102.7 % control. Besides, in data set [5], the “1. Cell count (% control)” value was 133.0 % control, the “2. Nuclear Area (% Control)” value amounted to 98.0 % Control and the “3. Nuclear DNA Intensity (% control)” value came out at 87.6 % control.
As for `COCC(=O)O[C@]1(CCN(C)CCCc2nc3ccccc3[nH]2)CCc2cc(F)ccc2[C@@H]1C(C)C.Cl.Cl` [UNC10303193A], the “4. Phagocytosis (% control)” value in data set [2] was 0.0 % control. Besides, in data set [3], the “4. Phagocytosis (% control)” value is on record as 9.6 % control. Moreover, in data set [4], the “1. Cell count (% control)” value is 0.0 % control, the “2. Nuclear Area (% Control)” value is 78.1 % Control and the “3. Nuclear DNA Intensity (% control)” value is reported as 3.8 % control. Also, in data set [5], the “1. Cell count (% control)” value is 77.7 % control, the “2. Nuclear Area (% Control)” value stood at 77.5 % Control and the “3. Nuclear DNA Intensity (% control)” value was found to be 143.7 % control.
For the compound `O=C1C=C(NCCc2cc(Br)c(O)c(Br)c2)C(=O)c2ncccc21` [UNC10303225A], the “4. Phagocytosis (% control)” value in data set [2] is 163.7 % control. The “4. Phagocytosis (% control)” value in data set [3] is on record as 54.3 % control. Further, in data set [4], the “1. Cell count (% control)” value amounted to 8.3 % control, the “2. Nuclear Area (% Control)” value is 122.7 % Control and the “3. Nuclear DNA Intensity (% control)” value is on record as 97.1 % control. Besides, in data set [5], the “1. Cell count (% control)” value turned out to be 62.3 % control, the “2. Nuclear Area (% Control)” value was determined as 83.0 % Control and the “3. Nuclear DNA Intensity (% control)” value is given as 132.4 % control.
